Test results published in US20130102595A1 (Curis, Inc., priority 2011, published 2013).

How the values were obtained:
[1] = system: HDACs (HeLa cell nuclear extracts); assay: HDAC enzymatic activity, Biomol Color de Lys system; assay type: biochemical; details: 1 hour, 25° C.
How it was run: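 IC50 from sigmoidal fit of developer-terminated fluorescence (ex 350-380/em 440-460 nm). Reaction: 1 h at room temperature (25 °C), HeLa nuclear extract as HDAC source, artificial substrate, buffer of 50 mM Tris/Cl pH 8.0 with 137 mM NaCl, 2.7 mM KCl and 1 mM MgCl2.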

[2] = target: T1, PI3Kα (p110α/p85α) (Homo sapiens, UniProt P42336); assay: PI3Kα ADP-Glo assay; assay type: biochemical; details: 20 μM PIP2, 10 μM ATP, 30 minutes
T1 construct: GST (N); made in house; host or cells: Baculovirus-infected Sf9 cells
How it was run: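 Luminescent ADP-Glo detection, after depletion of residual ATP, quantified ADP made by PI3Kα phosphorylating 20 μM PIP2 at 10 μM ATP. The kinase step ran 30 min at room temperature in HEPES pH 7.4 with MgCl2, DTT and orthovanadate, using baculovirus/Sf9-expressed full-length p110α/p85α complex.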

[3] = system: CFPAC-1; assay: Cell proliferation assay (CellTiter-Glo); assay type: cell-based; details: Homo sapiens, Pancreas, 72 hours, 0.5% fetal bovine serum, read-out: antiproliferative activity IC50, CFPAC-1
How it was run: (§1)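 Inhibition of growth was assessed as loss of ATP signal; cultures at 5,000–10,000 cells per well received serial compound doses for 72 h with 0.5% FBS, then were lysed for 30 min before luminescence reading.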

[4] = system: CaPan2; assay: Cell proliferation assay (CellTiter-Glo); assay type: cell-based; details: Homo sapiens, Capan-2; Pancreas; 72 hours, 0.5% fetal bovine serum; read-out: antiproliferative activity IC50, CaPan2
How it was run: as §1

[5] = system: Calu6; assay: Cell proliferation assay (CellTiter-Glo); assay type: cell-based; details: Homo sapiens, Calu-6; NSCLC; 72 hours, 0.5% fetal bovine serum; read-out: antiproliferative activity IC50, Calu6
How it was run: as §1

[6] = system: H460; assay: Cell proliferation assay (CellTiter-Glo); assay type: cell-based; details: Homo sapiens, NCI-H460; NSCLC; 72 hours, 0.5% fetal bovine serum; read-out: antiproliferative activity IC50, H460
How it was run: as §1

[7] = system: HCT116; assay: Cell proliferation assay (CellTiter-Glo); assay type: cell-based; details: Homo sapiens, HCT-116; Colon; 72 hours, 0.5% fetal bovine serum; read-out: antiproliferative activity IC50, HCT116
How it was run: as §1

[8] = system: MDA-MB-231; assay: Cell proliferation assay (CellTiter-Glo); assay type: cell-based; details: Homo sapiens, Breast, 72 hours, 0.5% fetal bovine serum, read-out: antiproliferative activity IC50, MDA-MB-231
How it was run: as §1

[9] = system: MiaPaca1; assay: Cell proliferation assay (CellTiter-Glo); assay type: cell-based; details: Pancreas; 72 hours, 0.5% fetal bovine serum; read-out: antiproliferative activity IC50, MiaPaca1
How it was run: as §1

[10] = system: PANC-1; assay: Cell proliferation assay (CellTiter-Glo); assay type: cell-based; details: Homo sapiens, Pancreas, 72 hours, 0.5% fetal bovine serum, read-out: antiproliferative activity IC50, PANC-1
How it was run: as §1

[11] = system: SW1990; assay: Cell proliferation assay (CellTiter-Glo); assay type: cell-based; details: Homo sapiens, Pancreas, 72 hours, 0.5% fetal bovine serum, read-out: antiproliferative activity IC50, SW1990
How it was run: as §1

[12] = system: WiDr; assay: Cell proliferation assay (CellTiter-Glo); assay type: cell-based; details: Homo sapiens, Colon, 72 hours, 0.5% fetal bovine serum, read-out: antiproliferative activity IC50, WiDr
How it was run: as §1

T1 sequence (P42336 whole entry): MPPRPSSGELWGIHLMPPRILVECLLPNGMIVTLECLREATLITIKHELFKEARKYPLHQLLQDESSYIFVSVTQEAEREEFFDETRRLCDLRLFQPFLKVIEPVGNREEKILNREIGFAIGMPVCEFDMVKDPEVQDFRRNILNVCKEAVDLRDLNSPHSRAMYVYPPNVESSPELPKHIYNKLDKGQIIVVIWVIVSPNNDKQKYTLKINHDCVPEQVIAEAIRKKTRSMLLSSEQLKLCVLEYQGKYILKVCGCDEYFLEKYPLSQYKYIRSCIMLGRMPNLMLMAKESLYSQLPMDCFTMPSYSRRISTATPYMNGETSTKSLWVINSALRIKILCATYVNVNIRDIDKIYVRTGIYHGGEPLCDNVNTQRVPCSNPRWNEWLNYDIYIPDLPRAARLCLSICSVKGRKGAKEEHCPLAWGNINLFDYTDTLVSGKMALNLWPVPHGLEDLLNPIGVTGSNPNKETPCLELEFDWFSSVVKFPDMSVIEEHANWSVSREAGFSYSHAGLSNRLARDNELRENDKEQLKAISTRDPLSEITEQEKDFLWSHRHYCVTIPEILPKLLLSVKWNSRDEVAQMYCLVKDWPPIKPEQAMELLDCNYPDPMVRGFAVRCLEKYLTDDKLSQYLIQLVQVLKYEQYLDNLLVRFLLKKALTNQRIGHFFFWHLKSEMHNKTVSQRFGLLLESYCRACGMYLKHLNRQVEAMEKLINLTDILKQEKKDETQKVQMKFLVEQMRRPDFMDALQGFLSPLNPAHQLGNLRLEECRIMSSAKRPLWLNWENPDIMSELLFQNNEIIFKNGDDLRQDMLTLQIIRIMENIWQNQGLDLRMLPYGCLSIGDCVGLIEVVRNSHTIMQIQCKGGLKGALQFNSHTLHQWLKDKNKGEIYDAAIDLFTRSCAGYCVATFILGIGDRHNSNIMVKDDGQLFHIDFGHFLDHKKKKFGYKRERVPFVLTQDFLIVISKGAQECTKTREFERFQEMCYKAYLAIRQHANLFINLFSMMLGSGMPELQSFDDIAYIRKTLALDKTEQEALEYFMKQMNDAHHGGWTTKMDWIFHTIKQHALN
T1 sequence (P27986 whole entry partner): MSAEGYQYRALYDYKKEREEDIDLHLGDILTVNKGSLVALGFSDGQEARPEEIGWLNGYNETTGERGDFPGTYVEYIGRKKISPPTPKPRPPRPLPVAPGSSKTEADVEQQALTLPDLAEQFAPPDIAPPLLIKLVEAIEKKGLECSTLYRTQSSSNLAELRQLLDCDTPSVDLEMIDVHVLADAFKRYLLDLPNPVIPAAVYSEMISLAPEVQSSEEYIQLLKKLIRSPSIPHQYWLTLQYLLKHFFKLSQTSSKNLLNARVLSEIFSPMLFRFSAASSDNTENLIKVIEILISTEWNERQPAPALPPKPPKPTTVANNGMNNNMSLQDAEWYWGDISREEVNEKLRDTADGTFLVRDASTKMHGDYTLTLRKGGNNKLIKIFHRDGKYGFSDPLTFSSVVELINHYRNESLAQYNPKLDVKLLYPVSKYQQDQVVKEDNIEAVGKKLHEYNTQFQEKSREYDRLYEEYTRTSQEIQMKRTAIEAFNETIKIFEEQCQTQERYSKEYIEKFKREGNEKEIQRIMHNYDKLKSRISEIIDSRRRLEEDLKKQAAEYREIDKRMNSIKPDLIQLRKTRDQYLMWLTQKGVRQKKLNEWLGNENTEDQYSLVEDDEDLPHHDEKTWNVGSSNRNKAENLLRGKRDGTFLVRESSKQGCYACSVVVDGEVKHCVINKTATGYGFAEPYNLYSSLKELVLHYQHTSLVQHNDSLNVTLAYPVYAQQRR

IC50 [1] | IC50 [2] | IC50 [5] | IC50 [6] | IC50 [7] | IC50 [8] | IC50 [9] | IC50 [10] | IC50 [11] | SMILES | IC50 [3] | IC50 [4] | IC50 [12]
< 100 nM | < 100 nM | 10 to 100 nM | 100 to 1000 nM | < 10 nM | 10 to 100 nM | 10 to 100 nM | 10 to 100 nM | 10 to 100 nM | CN(Cc1cc2nc(-c3cccc4[nH]ncc34)nc(N3CCOCC3)c2s1)c1ncc(C(=O)NO)cn1 [Compound 54, 2-(((2-(1H-indazol-4-yl)-4-morpholinothieno[3,2-d]pyrimidin-6-yl)methyl)(methyl)amino)-N-hydroxypyrimidine-5-carboxamide] | 100 to 1000 nM | 10 to 100 nM | 10 to 100 nM
< 100 nM | < 100 nM | 10 to 100 nM | 10 to 100 nM | < 10 nM | 100 to 1000 nM | < 10 nM | 10 to 100 nM | < 10 nM | CNc1ccc(-c2nc(N3CCOCC3)c3sc(CN(C)c4ncc(C(=O)NO)cn4)cc3n2)cn1 [Compound 111, N-Hydroxy-2-(methyl((2-(6-(methylamino)pyridin-3-yl)-4-morpholinothieno[3,2-d]pyrimidin-6-yl)methyl)amino)pyrimidine-5-carboxamide] | 10 to 100 nM | 10 to 100 nM | 10 to 100 nM
< 100 nM | < 100 nM | < 10 nM | 10 to 100 nM | < 10 nM | < 10 nM | < 10 nM | 10 to 100 nM | < 10 nM | CN(Cc1cc2nc(-c3ccc(N)cc3)nc(N3CCOCC3)c2s1)c1ncc(C(=O)NO)cn1 [Compound 150, 2-(((2-(4-aminophenyl)-4-morpholinothieno[3,2-d]pyrimidin-6-yl)methyl)(methyl)amino)-N-hydroxypyrimidine-5-carboxamide] | 10 to 100 nM | < 10 nM | 10 to 100 nM
